Measured values: patent US6083969A, “1,3- and 2,3-diarylcycloalkano and cycloalkeno pyrazoles as selective inhibitors of cyclooxygenase-2 and antiinflammatory agents” (Ortho-McNeil Pharaceutical, Inc., priority 1999, dated 2000)

What was measured:
COX-1 [1] = target: T1, COX-1 (Homo sapiens, UniProt P23219); experiment: Human platelet thromboxane B2 production (via COX-1); type: cell-based; conditions: human platelets, TXB2 production; read-out: P5: COX 1 Human Platelet IC50
T1 construct: Remove the platelet-rich plasma (PRP) and dilute the PRP 1:20 with 0.9% NaCl; endogenous in cells; host or cells: human platelets (platelet-rich plasma of one volunteer)
Method: HUMAN […] THROMBOXANE B2 PRODUCTION (via COX-1)
Procedure 5 was used to determine thromboxane B2 (TXB2) production (via COX-1) in human platelets as follows:
Draw blood from one volunteer into heparinized tubes then spin at RT for 15 to 20 minutes at 1,000 RPM. Remove the platelet-rich plasma (PRP) and dilute the PRP 1:20 with 0.9% NaCl containing 14.4U heparin/mL. Add 180 μL of the diluted PRP to each well of a 96-well plate and incubate at 37° C. for 5 minutes. Then add 20 μL vehicle (HBSS with 1% DMSO) or drug and incubate for 15 minutes at 37° C. Add 10 μl calcium ionophore and incubate 15 minutes at 37° C. Stop the reaction on slush ice for 5 minutes and assay supernatants immediately for TXB2 production via RIA or EIA.
Prepare all drugs at 10 mM in DMSO by diluting the drug in HBSS at a 1.100 ratio with 1% DMSO to 100 μM. Add 20 μl to PRP (1:10 ratio) to obtain 10 μM final concentration. The calcium ionophore is prepared by using 7 mg/mL free acid calcium ionophore in DMSO, which is warmed until the ionophore goes into solution. Just prior to use, dilute the solution 1:25 with HBSS.

[2] = target: T2, human prostaglandin H2 synthase type I (COX-1) (Homo sapiens, UniProt P23219); experiment: Human prostaglandin H2 synthase type I (COX-1) homogenate assay (transfected COS-7 cells, PGE2 formation); type: biochemical; conditions: COS-7 homogenate; for inhibition at 10 µM: read-out: P6: COX 1 Homogenized Cell % Inhibition
T2 construct: expressed in transfected cells; host or cells: COS-7 (African Green Monkey Kidney)
Method: HUMAN PROSTAGLANDIN H2 SYNTHASE--TYPE I (COX-1) HOMOGENATE ASSAY (SINGLE CONCENTRATION)
Procedures 6 and 7 were used to assess COX-1 activity in a homogenized cell assay as follows:
(§1) COS-7 (African Green Monkey Kidney) cells are maintained in a suitable medium, and are trypsinized and plated at a density of 1×10^6 cells/well of a 6 well plate prior to assay. Approximately 24 hours later, cells are transiently transfected with a plasmid containing the human COX-1 gene using the lipofectamine method. Two days later, the cell-free homogenate is prepared by subjecting the cells to a polytron followed by centrifugation at 9,000×g. COX activity, initiated by the addition of […] arachidonic acid to the 9,000×g supernatant, is monitored in the presence of vehicle or drug. Product (PGE2) formation is quantitated by radioimmunoassay. Activity, reported as percent inhibition of PGE2 produced, is calculated as follows: [formula]

[3] = target: T3, human prostaglandin H2 synthase type II (COX-2) (Homo sapiens, UniProt P35354); experiment: Human prostaglandin H2 synthase type II (COX-2) whole cell assay (ECV-304 cells, PGE2 by radioimmunoassay); type: cell-based; set-up: endogenous in cells; host or cells: ECV-304; conditions: for IC50: read-out: P2: COX 2 Whole Cell IC50; for inhibition at 3 µM: @3 μM (superscript a); for inhibition at 3 µM / inhibition at 10 µM: read-out: P1: COX 2 Whole Cell % Inhibition
T3 sequence (P35354 18-604): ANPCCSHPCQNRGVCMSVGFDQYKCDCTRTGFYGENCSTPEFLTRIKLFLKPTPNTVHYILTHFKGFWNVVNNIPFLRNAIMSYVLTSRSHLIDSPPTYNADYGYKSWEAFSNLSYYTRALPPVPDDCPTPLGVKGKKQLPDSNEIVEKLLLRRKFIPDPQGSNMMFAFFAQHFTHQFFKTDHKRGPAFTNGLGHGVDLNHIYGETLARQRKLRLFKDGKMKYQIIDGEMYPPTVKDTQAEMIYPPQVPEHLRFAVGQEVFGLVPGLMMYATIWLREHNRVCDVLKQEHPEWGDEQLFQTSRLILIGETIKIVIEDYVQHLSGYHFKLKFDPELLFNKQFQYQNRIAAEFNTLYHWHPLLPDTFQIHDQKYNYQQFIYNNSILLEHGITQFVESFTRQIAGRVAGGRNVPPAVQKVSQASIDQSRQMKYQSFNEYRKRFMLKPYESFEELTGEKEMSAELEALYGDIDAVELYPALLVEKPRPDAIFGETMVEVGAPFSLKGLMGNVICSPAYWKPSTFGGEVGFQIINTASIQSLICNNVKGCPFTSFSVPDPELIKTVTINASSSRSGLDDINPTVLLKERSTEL
Method: HUMAN PROSTAGLANDIN H2 SYNTHASE TYPE II (COX-2) WHOLE CELL ASSAY (MULTIPLE CONCENTRATIONS)
Procedures 1 and 2 were used to determine the ability of the compounds to inhibit human prostaglandin H2 synthase type II (COX-2) in a whole cell assay at multiple concentrations as follows:
Approximately 28 h later, […] PMA and […] ionomycin (both final concentrations) are added to each well and incubated for an additional 16 h. Vehicle or test compounds in the amount of […] are incubated with the cells for five minutes prior to initiation of COX-2 enzyme activity by the addition of 30 μM arachidonic acid. Ten minutes later, an aliquot of the supernatant is withdrawn and the amount of PGE2 present quantitated by radioimmunoassay. Activity, reported as percent inhibition of PGE2 produced, is calculated as follows: [formula]

[4] = target: T3, human prostaglandin H2 synthase type II (COX-2); experiment: Human prostaglandin H2 synthase type II (hCOX-2) homogenate assay (transfected COS-7 cells, PGE2 formation); type: biochemical; set-up: expressed in transfected cells; host or cells: COS-7 (African Green Monkey Kidney); conditions: for IC50: read-out: P4: COX 2 Homogenized Cell IC50; for inhibition at 10 µM: read-out: P3: COX 2 Homogenized Cell % Inhibition
Method: HUMAN PROSTAGLANDIN H2 SYNTHASE TYPE II (hCOX-2) HOMOGENATE ASSAY (SINGLE CONCENTRATION)
Procedures 3 and 4 were used to assess COX-2 activity in a homogenized cell assay as follows:
as §1, with “COX-2” for “COX-1”

COX-1 [5] = target: T1, COX-1; experiment: Human platelet thromboxane B2 production (via COX-1); type: cell-based; conditions: @3 μM (superscript b); human platelets, TXB2 production; read-out: P5: COX 1 Human Platelet % Inhibition

T2 sequence (P23219 24-599): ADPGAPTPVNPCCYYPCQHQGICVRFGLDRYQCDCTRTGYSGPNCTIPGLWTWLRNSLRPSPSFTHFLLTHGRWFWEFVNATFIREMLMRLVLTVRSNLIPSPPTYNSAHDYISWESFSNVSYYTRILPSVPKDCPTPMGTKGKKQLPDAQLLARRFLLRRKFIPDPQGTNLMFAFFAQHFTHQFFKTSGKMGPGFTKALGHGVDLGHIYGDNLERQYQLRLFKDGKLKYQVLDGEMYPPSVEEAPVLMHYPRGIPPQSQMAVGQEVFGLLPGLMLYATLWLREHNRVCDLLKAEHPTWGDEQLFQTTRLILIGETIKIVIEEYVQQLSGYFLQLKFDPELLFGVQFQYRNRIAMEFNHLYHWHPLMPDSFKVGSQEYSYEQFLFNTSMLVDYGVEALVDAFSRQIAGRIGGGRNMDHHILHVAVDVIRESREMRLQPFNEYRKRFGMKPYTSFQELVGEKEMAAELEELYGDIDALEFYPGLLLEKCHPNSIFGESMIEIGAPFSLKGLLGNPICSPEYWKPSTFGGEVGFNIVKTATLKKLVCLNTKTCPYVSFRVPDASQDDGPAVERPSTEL
T1 sequence (P23219 24-599): as above

Structure (SMILES) | IC50 (COX-1 [1]) | inhibition at 10 µM [2] | IC50 [3] | inhibition at 3 µM (COX-1 [5]) | inhibition at 3 µM [3] | inhibition at 10 µM ([4]; @10 μM, COS-7 homogenate) | also measured
COc1ccc(-n2nc(-c3ccc(F)cc3)c3c2CCCCC3)cc1 [Example 9, 3-(4-Fluorophenyl)-1-(4-methoxyphenyl)-cycloheptano-[1,2-d]-pyrazole] | > 10 µM | 64% | 2.51 µM | – | – | – | IC50 ([4]; COS-7 homogenate): 2.5 µM
CCOc1ccc2c(-c3ccc(F)cc3)nn(-c3ccc(S(C)(=O)=O)cc3)c2c1 [Example 32j] | – | – | – | 35% | 87% | – | –
CS(=O)(=O)c1ccc(C(=O)C2CC(=O)CCC2=O)cc1 (centres unmarked) [Example 29f] | – | – | – | 6% | 66% | – | –
CS(=O)(=O)c1ccc(-n2nc(-c3ccc(F)cc3)c3c2C=CCC3)cc1 [Example 5a, 3-(4-Fluorophenyl)-4,5-dihydro-1-(4-methylsulfonylphenyl)-1H-indazole] | > 10 µM | 32% | > 10 µM | – | – | 6% | inhibition at 10 µM [3]: 9%
Cc1ccc(-n2nc(-c3ccc(Cl)cc3)c3c2CCCCC3)cc1 [Example 11, 3-(4-Chlorophenyl)-1-(4-methylphenyl)-cycloheptano-[1,2-d]-pyrazole] | – | 74% | 0.64 µM | – | – | – | inhibition at 10 µM [4]: 40%
CS(=O)(=O)c1ccc(-n2nc(-c3ccc(Cl)cc3)c3c2CCCCC3)cc1 [Example 10, 3-(4-Chlorophenyl)-1-(4-methylsulfonylphenyl)-cycloheptano-[1,2-d]-pyrazole] | 10 µM | 24% | – | – | – | 26% | inhibition at 10 µM [3]: 5%
CS(=O)(=O)c1ccc(-n2nc3c(c2-c2ccc(C(F)(F)F)cc2)CCC=C3)cc1 [Example 32c] | – | – | 0.61 µM | 24% | – | – | –
COc1ccc(-n2nc(-c3ccc(Cl)cc3)c3c2CCCCC3)cc1 [Example 8, 3-(4-Chlorophenyl)-1-(4-methoxyphenyl)-cycloheptano-[1,2-d]-pyrazole] | – | 25% | 1.56 µM | – | – | 92% | IC50 ([2]; read-out: P7: COX 1 Homogenized Cell IC50): 5.3 µM; IC50 ([4]; COS-7 homogenate): 0.38 µM
Fc1ccc(-n2nc(-c3ccc(Cl)cc3)c3ccc4[nH]c5ccc(F)cc5c4c32)cc1 [Example 32k] | – | – | – | 22% | 29% | – | –
